Source: US7674767B2, “Nanoparticle compositions of water-soluble drugs for oral administration and preparation methods thereof” (Samyang Corporation, priority 2003, dated 2010)

Assay: Gastrointestinal absorption test, blood concentration of ceftriaxone after intra-duodenal administration
Format: in vivo, Sprague Dawley rat
Conditions: intra-duodenal 40 mg/kg, normal rats
Experimental: Normal rat (Sprague Dawley, male, weighing about 200 g) was ether-anesthetized, and the abdomen was opened. The duodenum was taken and the nanoparticle liquid formulation containing ceftriaxone was administered thereto at 40 mg/kg as ceftriaxone.
The formulations of Examples 6 and Example 7, and Comparative Example 5 were used for test groups. The formulation of Comparative Example 5 is one containing neither ceftriaxone-counter-ion complex nor polymer, and so having lower drug entrapping rate and incapable of controlling drug dissolution compared with that of Example 6.
Blood was gathered from tail vein at 0, 0.5, 1, 1.5, 2, 3 and 4 hours after the drug administration, and analyzed according to ceftriaxone analysis method of the US Pharmacopoeia. The blood was centrifuged at 3000 rpm for 10 minutes, and pretreated by adding the equal amount of acetonitrile thereto.
As reference group 1, ceftriaxone dissolved in water was administered at 40 mg/kg via the same route as Example 6.
As reference group 2, ceftriaxone dissolved in a physiological saline was intravenously injected at 20 mg/kg.

For `CO/N=C(\C(=O)N[C@@H]1C(=O)N2C(C(=O)O)=C(CSc3nc(=O)c(=O)[nH]n3C)CS[C@H]12)c1csc(N)n1` [aqueous solution of ceftriaxone, ceftriaxone], the “absorption of ceftriaxone in vivo” value was “not nearly absorbed”.
